ChEMBL document CHEMBL1155612, “Lyngbyabellin B, a toxic and antifungal secondary metabolite from the marine cyanobacterium Lyngbya majuscula” (J Nat Prod, 2000)
Calls of active or inactive are those of the source. The calls are words filed in the database; no cut-off is given here.

Key:
[1] = tested on: Candida albicans; assay: Antimicrobial activity against Candida albicans ATCC 14053 at 10 ug/disk by disk agar plate assay; format: functional, organism-based
[2] = tested on: Escherichia coli; assay: Antimicrobial activity against Escherichia coli ATCC 11775 by disk agar plate assay; format: functional, organism-based
[3] = tested on: Pseudomonas aeruginosa; assay: Antimicrobial activity against Pseudomonas aeruginosa ATCC 10145 by disk agar plate assay; format: functional, organism-based
[4] = tested on: Artemia; assay: Toxicity against brine shrimp after 24 hrs; format: organism-based; conditions: in vivo
[5] = tested on: Salmonella enterica subsp. enterica; assay: Antimicrobial activity against Salmonella choleraesuis subsp. choleraesuis ATCC 14028 by disk agar plate assay; format: functional, organism-based
[6] = tested on: Staphylococcus aureus; assay: Antimicrobial activity against Staphylococcus aureus ATCC 12600 by disk agar plate assay; format: functional, organism-based
[7] = tested on: Candida albicans; assay: Antimicrobial activity against Candida albicans ATCC 14053 at 100 ug/disk by disk agar plate assay; format: functional; conditions: read-out: IZ
[8] = tested on: Bacillus subtilis; assay: Antimicrobial activity against Bacillus subtilis ATCC 6051 by disk agar plate assay; format: functional, organism-based

In the case of `CC(C)[C@@H]1NC(=O)CNC(=O)[C@@H]2CSC(=N2)[C@H](C(C)(C)O)OC(=O)C(C)(C)[C@H](CCCC(C)(Cl)Cl)OC(=O)c2csc1n2` [LYNGBYABELLIN B], the Activity [1] is reported as “Active”, the Activity [2] is reported as “inactive” and the Activity [3] is reported as “inactive”. The LD50 [4] was 3 ppm, the Activity [5] was “inactive” and the Activity [6] was “inactive”. The zone of inhibition at 100 µg/disc [7] was 10.5 mm and the Activity [8] was “inactive”.
